Values of other authors, collected in patent publication US8034766B2 (priority 2006, dated 2011).

System: prion
Details: in vivo

CC(=O)OO [Peracetic acid, peracetic acid]
onward transmission rate following treatment: 100%
